Like-named read-outs stand apart in the source and are kept apart here.
Assays:
[1] = system: primary neuron (neuron, astrocyte and microglia) prepared from brain cortex of a rat fetus; test: Hydrogen peroxide disorder in primary neuron; assay type: cell-based; conditions: concrete data not shown
Text: (§1) Though concrete data is not shown, using primary neuron (neuron, astrocyte and microglia) prepared from brain cortex of a rat fetus in place of PC12-HS cells, the influence of NK-4, NK-26, NK-234, NK-19 and NK-150 on amyloid β fragment disorder and hydrogen peroxide disorder was investigated.

[2] = system: ICR mice administered with amyloid β fragment; test: Degeneration or defect of hippocampal pyramidal cells, mouse administered with amyloid β fragment, agents of Example 1; assay type: in vivo; conditions: 4-point grade score none (0) to severe (3), average of 10 mice; agent of Example 1, 0.3 ml/head intraperitoneally once a day up to the 8th day
Method: (§2) One hundred and thirty ICR mice (commercialized by Charles Liver Laboratories Japan Inc., Kanagawa, Japan) were randomly divided into 13 groups, consisting of 10 mice in each group. Amyloid β fragment, represented by an amino acid sequence of SEQ ID NO: 1, used in Experiment 3 was aged at 37° C. for four days, and administered to the lateral ventricle of each mouse in an amount of 9 nmol/6 μl/mouse (the administration method is referred to “Brain Research”, Vol. 706, pp. 181-193 (1996)). […] The mice (10 heads) in the remaining one group were intraperitoneally administered with a sterilized 10% maltose solution (pyrogen-free) once a day up to the 8th day in an amount of 0.3 ml/mouse (control). On the 8th day after the administration, novel object recognition test (see, Japanese Patent Kokai No. 2008-193941) was performed and the average discrimination index (the ratio of prolonged seeking time for novel object to the total seeking time) as a cognitive function index were shown in Table 26. On the 9th day after the administration, the brain of the mice was anatomically isolated, prepared into tissue samples in conventional manner. Depositions of aggregation of amyloid fragment were observed by staining with Congo red or thioflavin T, and degeneration or defect of hippocampal pyramidal cells concerned with cognitive function. The degeneration or the defect of hippocampal pyramidal cells was evaluated by 4-point grade score, by regarding the condition of the control without administration of amyloid β fragment as “none (O)”, “slight (1)”, “moderate (2)”, and “sever (3)”, and the average scores of 10 mice are shown in Table 20.

[3] = system: primary neuron (neuron, astrocyte and microglia) prepared from brain cortex of a rat fetus; test: Amyloid β fragment disorder in primary neuron; assay type: cell-based; conditions: concrete data not shown
Text: as §1

[4] = molecular target: T1, acetylcholine esterase (AchE) (Rattus norvegicus, UniProt P37136); test: biochemical; assay type: biochemical; conditions: for action of inhibiting AchE activity (in words): Experiment 14, comparison of NK-4 analogues and NK-150
T1 sequence (P37136 32-614): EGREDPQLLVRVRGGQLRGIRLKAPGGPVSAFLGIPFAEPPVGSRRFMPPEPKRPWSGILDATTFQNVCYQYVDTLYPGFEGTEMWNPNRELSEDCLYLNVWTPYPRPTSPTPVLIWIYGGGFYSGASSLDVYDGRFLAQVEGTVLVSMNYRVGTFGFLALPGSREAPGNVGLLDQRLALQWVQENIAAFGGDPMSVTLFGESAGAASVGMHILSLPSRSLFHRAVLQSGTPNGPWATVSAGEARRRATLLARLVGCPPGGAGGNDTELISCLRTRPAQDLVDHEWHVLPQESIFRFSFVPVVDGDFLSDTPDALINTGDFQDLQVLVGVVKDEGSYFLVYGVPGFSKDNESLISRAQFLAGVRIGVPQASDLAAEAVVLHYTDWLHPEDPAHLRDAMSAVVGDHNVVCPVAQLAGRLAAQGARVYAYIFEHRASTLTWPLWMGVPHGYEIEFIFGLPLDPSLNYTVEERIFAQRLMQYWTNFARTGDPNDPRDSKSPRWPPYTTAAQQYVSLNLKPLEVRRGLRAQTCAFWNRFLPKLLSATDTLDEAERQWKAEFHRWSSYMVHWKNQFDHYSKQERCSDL

[5] = system: ICR mice administered with amyloid β fragment; test: Novel object recognition test, mouse administered with amyloid β fragment, agents of Example 1; assay type: in vivo; set-up: key: (novel − memorized seeking time)/(novel + memorized seeking time); conditions: agent of Example 1, 0.3 ml/head intraperitoneally once a day up to the 8th day
Method: as §2
An experiment apparatus (a glass box of 30 cm in depth, 45 cm in width, and 30 cm in height) and two kinds of objects to be memorized by mice were provided. On the day before the test, the mice were allowed to seek freely in the experiment apparatus with no seeking object for 10 minutes for acclimation. On the test day, the following test was performed twice at an interval of 60 minutes. In the first trial, the same two objects were placed in the apparatus at its both ends, and the mouse was allowed to seek freely for 10 minutes. On the second trial, one of the objects used in the first test was replaced with a different kind of object, and then the mouse was allowed to seek freely for five minutes. In each experiment, when the mouse brought its muffle close to the object within 1-cm apart from the object, or made its muffle or whiskers to contact with the object, the mouse was judged to have a seeking behavior, and the seeking time thereof was measured. The object discrimination index [={(seeking time for novel object)−(seeking time for memorized object)}/{(seeking time of novel object)+(seeking time of memorized object)}] was calculated. The object discrimination index means the ratio of an increased seeking time for novel object to the total seeking time, and the ratio becomes larger when the memory of the once sought object was more strongly held, and it becomes smaller when the memory was more weakly held.

[6] = concentration of compound 0.78 μg/ml
[7] = concentration of compound 1.56 μg/ml
[8] = concentration of compound 3.13 μg/ml
[9] = concentration of compound 6.25 μg/ml
[10] = concentration of compound 12.5 μg/ml
[11] = concentration of compound 25 μg/ml
[12] = concentration of compound 50 μg/ml
[13] = concentration that suppresses AchE activity by 50%, calculated from residual ratios
[14] = compound concentration 0.78 μg/ml, read-out: Residual ratio of AchE activity (%)
[15] = compound concentration 1.56 μg/ml, read-out: Residual ratio of AchE activity (%)
[16] = compound concentration 3.13 μg/ml, read-out: Residual ratio of AchE activity (%)
[17] = compound concentration 6.25 μg/ml, read-out: Residual ratio of AchE activity (%)
[18] = compound concentration 12.5 μg/ml, read-out: Residual ratio of AchE activity (%)
[19] = compound concentration 25 μg/ml, read-out: Residual ratio of AchE activity (%)

CCN1C=CC(=CC=C(C=Cc2cc[n+](CC)c3ccccc23)c2cc[n+](CC)c3ccccc23)c2ccccc21.[I-].[I-] [NK-4]
suppressing hydrogen peroxide disorder [1]: actions of suppressing
Degeneration/defluxion of hippocampal pyramidal cell [2]: 1.1
suppressing amyloid β fragment disorder [3]: actions of suppressing
IC50 (concentration of a compound inhibiting the AchE activity of 50%) ([4]; AchE solution from PC12-HS cells): 3.3 µg/mL
action of inhibiting AchE activity (in words) [4]: strongly inhibited AchE activity
Residual ratio of AchE activity (%) ([4]; compound concentration 0.78 μg/ml): 84 ± 6%
Residual ratio of AchE activity (%) ([4]; compound concentration 1.56 μg/ml): 66 ± 7%
Residual ratio of AchE activity (%) ([4]; compound concentration 3.13 μg/ml): 42 ± 4 %
Residual ratio of AchE activity (%) ([4]; compound concentration 6.25 μg/ml): 37 ± 10 %
Residual ratio of AchE activity (%) ([4]; compound concentration 12.5 μg/ml): 38 ± 2 %
Residual ratio of AchE activity (%) ([4]; compound concentration 25 μg/ml): 30 ± 8 %
Residual ratio of AchE activity (%) [4, 6]: 91 ± 4%
Residual ratio of AchE activity (%) [4, 7]: 47 ± 4 %
Residual ratio of AchE activity (%) [4, 8]: 41 ± 9 %
Residual ratio of AchE activity (%) [4, 9]: 38 ± 7 %
Residual ratio of AchE activity (%) [4, 10]: 24 ± 2 %
Residual ratio of AchE activity (%) [4, 11]: 25 ± 3 %
Residual ratio of AchE activity (%) [4, 12]: 22 ± 2 %
IC50 [4, 13]: 1.5 µg/mL
Object discrimination index [5]: 0.1

CCCCN1C=C/C(=C/C=C(/C=C/c2cc[n+](CCCC)c3ccccc23)c2cc[n+](CCCC)c3ccccc23)c2ccccc21 [NK-26]
suppressing hydrogen peroxide disorder [1]: actions of suppressing
Degeneration/defluxion of hippocampal pyramidal cell [2]: 1.1
suppressing amyloid β fragment disorder [3]: actions of suppressing
remaining activity at 0.78 µg/mL ([4]; concentration of compound 0.78 μg/ml, read-out: Residual ratio of AchE activity (%)): 94 ± 11%
remaining activity at 1.56 µg/mL ([4]; concentration of compound 1.56 μg/ml, read-out: Residual ratio of AchE activity (%)): 84 ± 9%
remaining activity at 3.13 µg/mL ([4]; concentration of compound 3.13 μg/ml, read-out: Residual ratio of AchE activity (%)): 88 ± 8%
remaining activity at 6.25 µg/mL ([4]; concentration of compound 6.25 μg/ml, read-out: Residual ratio of AchE activity (%)): 88 ± 7%
remaining activity at 12.5 µg/mL ([4]; concentration of compound 12.5 μg/ml, read-out: Residual ratio of AchE activity (%)): 69 ± 5%
remaining activity at 25 µg/mL ([4]; concentration of compound 25 μg/ml, read-out: Residual ratio of AchE activity (%)): 48 ± 4%
remaining activity at 50 µg/mL ([4]; concentration of compound 50 μg/ml, read-out: Residual ratio of AchE activity (%)): 36 ± 9%
IC50 ([4]; concentration that suppresses AchE activity by 50%, calculated from residual ratios, read-out: IC50 (μg/ml) (converted)): 37.6 µM
Object discrimination index [5]: 0.1

CCCCCCCN1C=CC(=CC=C(C=Cc2cc[n+](CCCCCCC)c3ccccc23)c2cc[n+](CCCCCCC)c3ccccc23)c2ccccc21.[I-].[I-] [NK-28]
Degeneration/defluxion of hippocampal pyramidal cell [2]: 1.4
Object discrimination index [5]: 0.2

CCN1/C(=C/C=C(/C=C/c2sc3ccccc3[n+]2CC)c2sc3ccccc3[n+]2CC)Sc2ccccc21.[I-].[I-] [NK-100]
Degeneration/defluxion of hippocampal pyramidal cell [2]: 0.9
IC50 ([4]; AchE solution from PC12-HS cells, read-out: IC50 (concentration of a compound inhibiting the AchE activity of 50%) (converted)): 14.6 µM
remaining activity at 0.78 µg/mL [4, 14]: 77 ± 18%
remaining activity at 1.56 µg/mL [4, 15]: 68 ± 16%
remaining activity at 3.13 µg/mL [4, 16]: 67 ± 3%
remaining activity at 6.25 µg/mL [4, 17]: 60 ± 3%
remaining activity at 12.5 µg/mL [4, 18]: 49 ± 5%
remaining activity at 25 µg/mL [4, 19]: 43 ± 3%
Object discrimination index [5]: 0.1

CCCCCCCCN1C=CC(=CC=C(C=Cc2cc[n+](CCCCCCCC)c3ccccc23)c2cc[n+](CCCCCCCC)c3ccccc23)c2ccccc21.[I-].[I-] [NK-147]
Degeneration/defluxion of hippocampal pyramidal cell [2]: 1.5
Object discrimination index [5]: 0.2

CCCN1C=CC(=CC=C(C=Cc2cc[n+](CCC)c3ccccc23)c2cc[n+](CCC)c3ccccc23)c2ccccc21.[I-].[I-] [NK-234]
suppressing hydrogen peroxide disorder [1]: actions of suppressing
suppressing amyloid β fragment disorder [3]: actions of suppressing
action of inhibiting AchE activity (in words) [4]: strongly inhibited AchE activity
Residual ratio of AchE activity (%) [4, 6]: 77 ± 21%
Residual ratio of AchE activity (%) [4, 7]: 77 ± 13%
Residual ratio of AchE activity (%) [4, 8]: 47 ± 11 %
Residual ratio of AchE activity (%) [4, 9]: 45 ± 9 %
Residual ratio of AchE activity (%) [4, 10]: 30 ± 12 %
Residual ratio of AchE activity (%) [4, 11]: 26 ± 6 %
Residual ratio of AchE activity (%) [4, 12]: 12 ± 6 %
IC50 [4, 13]: 3.0 µg/mL

CCCCCCCCCN1C(C)=CS\C1=C/C=C(\C=C\c1scc(C)[n+]1CCCCCCCCC)c1scc(C)[n+]1CCCCCCCCC.[I-].[I-] [NK-393]
Degeneration/defluxion of hippocampal pyramidal cell [2]: 1.1
Object discrimination index [5]: 0.2

CN(C)c1ccc(/C=C/c2oc3ccccc3[n+]2C)cc1 [NK-528]
Degeneration/defluxion of hippocampal pyramidal cell [2]: 2.2
Object discrimination index [5]: 0.3

CC[n+]1ccccc1/C=C/c1ccc(N(C)C)cc1 [NK-557]
Degeneration/defluxion of hippocampal pyramidal cell [2]: 2.1
remaining activity at 0.78 µg/mL [4, 14]: 110 ± 1%
remaining activity at 1.56 µg/mL [4, 15]: 107 ± 2%
remaining activity at 3.13 µg/mL [4, 16]: 97 ± 5%
remaining activity at 6.25 µg/mL [4, 17]: 97 ± 3%
remaining activity at 12.5 µg/mL [4, 18]: 97 ± 4%
remaining activity at 25 µg/mL [4, 19]: 88 ± 9%
Object discrimination index [5]: 0.4

COc1ccc2oc(/C=C/c3ccc(N(C)C)cc3)[n+](C)c2c1 [NK-1516]
Degeneration/defluxion of hippocampal pyramidal cell [2]: 1.9
Object discrimination index [5]: 0.4
